Assay results from patent publication US4699924A, “Skin treatment composition” (priority 1983, dated 1987).
Where a name gives a salt, the structure may show the parent alone. Read-outs that look alike come from different tables or passages of the source.

What was measured:
[1] = Cloud point temperature of a 0.025M aqueous solution of polyoxyethylene(8)nonylphenyl ether with 5% by weight additive; assay type: physicochemical; settings: for Effect on the cloud point temperature of nonionic surfactants: screening of non-electrolytes, in words
Method: An activity enhancer is accordingly defined as a non-electrolyte which is capable, at a concentration of 5% by weight of increasing the cloud point temperature of a 0.025M aqueous solution of polyoxyethylene(8)nonylphenyl ether by at least 10° C. Preferably the activity enhancer is one which is capable of increasing the cloud point temperature by at least 15° C., most preferably by at least 20° C.
It should be explained that the "cloud point" is a measure of the inverse solubility of a nonionic surfactant with temperature and can be determined by heating a standard clear aqueous solution of the nonionic surfactant until the solution becomes visibly cloudy and then measuring the temperature.
The cloud point temperature can conveniently be determined automatically using the equipment and method described by Baum et al in Mat. Res. Std. 4 26 (1964).
Examples of suitable compounds functioning as activity enhancers, together with the respective elevated cloud point temperature obtained in each case when using the standard test defined hereinbefore are listed below in Table 1.

[2] = system: guinea pig foot pad stratum corneum; assay: Increase in extensibility of guinea pig foot pad stratum corneum; parameters: Increase in stratum corneum extensibility: unit not given here; settings: 0.2 M 2-hydroxyoctanoic acid + additive at 5% w/w; 3 hours at 20° C.; relative humidity 65%
Method: The ability of an additive to enhance the delivery to skin of 2-hydroxyoctanoic acid was measured in terms of the increase in extensibility of guinea pig foot pad stratum corneum following contact with each solution.
In this experiment, pieces of guinea pig foot pad stratum corneum, equilibrated at a relative humidity of 65%, were immersed in each solution for 3 hours at 20° C., and then removed, blotted dry and re-equilibrated at the same relative humidity. The extensibility of each piece of guinea pig foot pad stratum corneum was measured before and after this treatment in an extensiometer according to the method described in European Pat. No. 7785.

physchem = settings: octanol/water
[3] = Table 1, activity enhancer 5% by weight, 0.025 M polyoxyethylene(8)nonylphenyl ether
[4] = Table 1, activity enhancer 5% by weight, control 33.5 °C., in °C
[5] = table of extensibility results, additive at 5% w/w, in °C
[6] = Table 2, compound which is not an activity enhancer, 5% by weight
[7] = Table 2, compound which is not an activity enhancer, 5% by weight, control 33.5 °C.

## 4-methyl-6-(2,4,6-trimethyl-pentyl)-2-(1H)--pyridone
octanol/water
  Log partition coefficient: 1.28

## C1COCCO1 [1,4 Dioxane]
[1]; [3]
  Cloud point temperature: 44.0 °C
[1]; [4]
  Elevation of cloud point temperature: 10.5

## CC(O)C(=O)O (stereo not drawn) [2-hydroxypropionic acid]
[2]
  Increase in stratum corneum extensibility: 17.1
[1]; [3]
  Cloud point temperature: 45.0 °C
[1]; [4]
  Elevation of cloud point temperature: 11.5
[1]; [5]
  Elevation of cloud point temperature: 11.5

## CCCCCCC(=O)C(=O)O [2-ketooctanoic acid]
physchem
  logP: 3.2

## CC(C)CO [2-methyl propan-1-ol]
[1]; [6]
  Cloud point temperature: 41.0 °C
[1]; [7]
  Elevation of cloud point temperature: 7.5 °C

## CC(C)(C)O [2-methyl propan-2-ol]
[1]; [3]
  Cloud point temperature: 55.0 °C
[1]; [4]
  Elevation of cloud point temperature: 21.5

## O=C1CCCN1 [2-pyrrolidone]
[2]
  Increase in stratum corneum extensibility: 28.0
[1]; [5]
  Elevation of cloud point temperature: 15.5

## CCC1OC(=O)C(C)C(OC2CC(C)(OC)C(O)C(C)O2)C(C)C(OC2OC(C)C(O)C(N(C)C)C2O)C(C)(O)CC(C)C(=O)C(C)C(O)C1(C)O (stereo not drawn) [4'-hydroxyerythromycin]
octanol/water
  Log partition coefficient: 1.44

## CN1C(=O)NC(=O)C(C)(C)C1=O [5,5-dimethyl, 1-methyl barbituric acid]
physchem
  logP: 1.09

## CCC1(c2ccccc2)C(=O)NC(=O)NC1=O [5-ethyl-5-phenyl barbituric acid, reference compound]
octanol/water at 20° C.
  Log partition coefficient: 1.42

## CC(C)=O [Acetone]
[1]; [3]
  Cloud point temperature: 46.3 °C
[1]; [4]
  Elevation of cloud point temperature: 12.8

## CC(O)CCO (stereo not drawn) [Butan-1,3-diol]
[1]; [6]
  Cloud point temperature: 41.5 °C
[1]; [7]
  Elevation of cloud point temperature: 8.0 °C

## OCCCCO [Butan-1,4-diol]
[1]; [3]
  Cloud point temperature: 45.0 °C
[1]; [4]
  Elevation of cloud point temperature: 11.5

## CCCCO [Butan-1-ol]
[2]
  Increase in stratum corneum extensibility: 13.2
[1]; [6]
  Cloud point temperature: 36.3 °C
[1]; [7]
  Elevation of cloud point temperature: 2.8 °C
[1]
  Effect on the cloud point temperature of nonionic surfactants: reduce the cloud point temperature
[1]; [5]
  Elevation of cloud point temperature: 2.8

## OC1CCCCC1 [Cyclohexanol]
[1]; [6]
  Cloud point temperature: 11.0 °C
[1]; [7]
  Elevation of cloud point temperature: -22.5 °C
[1]
  Effect on the cloud point temperature of nonionic surfactants: reduce the cloud point temperature

## CC(O)COCC(C)O (stereo not drawn) [Di(2-hydroxypropyl) ether]
[2]
  Increase in stratum corneum extensibility: 21.6
[1]; [3]
  Cloud point temperature: 44.8 °C
[1]; [4]
  Elevation of cloud point temperature: 11.3
[1]; [5]
  Elevation of cloud point temperature: 11.3

## C[S+](C)[O-] [Dimethyl sulphoxide]
[2]
  Increase in stratum corneum extensibility: 5
[1]; [6]
  Cloud point temperature: 33.9 °C
[1]; [7]
  Elevation of cloud point temperature: 0.4 °C
[1]; [5]
  Elevation of cloud point temperature: -0.5

## OCCO [Ethan-1,2-diol]
[2]
  Increase in stratum corneum extensibility: 5
[1]; [6]
  Cloud point temperature: 33.0 °C
[1]; [7]
  Elevation of cloud point temperature: -0.5 °C
[1]; [5]
  Elevation of cloud point temperature: -0.5

## CCOC(=O)C(C)O (stereo not drawn) [Ethyl-2hydroxypropanoate]
[1]; [3]
  Cloud point temperature: 52.1 °C
[1]; [4]
  Elevation of cloud point temperature: 18.6

## CC(O)CCC(C)O (stereo not drawn) [Hexan-2,5-diol]
[2]
  Increase in stratum corneum extensibility: 37.0
[1]; [3]
  Cloud point temperature: 52.0 °C
[1]; [4]
  Elevation of cloud point temperature: 18.5
[1]; [5]
  Elevation of cloud point temperature: 18.5

## C1COCCN1 [Morpholine]
[1]; [6]
  Cloud point temperature: 40.0 °C
[1]; [7]
  Elevation of cloud point temperature: 6.5 °C

## CC(=O)Nc1ccccc1C(=O)O [N--acetyl O--aminobenzoic acid]
octanol/water at 20° C.
  Log partition coefficient: 1.88

## O=Cc1ccccc1O [O--hydroxybenzaldehyde]
physchem
  logP: 1.7

## CCOCCOCCO [POE(2) ethyl ether, polyoxyethylene(2) ethyl ether]
[1]; [3]
  Cloud point temperature: 46.0 °C
[1]; [4]
  Elevation of cloud point temperature: 12.5

## COCCOCCO [POE(2) methyl ether]
[1]; [3]
  Cloud point temperature: 43.5 °C
[1]; [4]
  Elevation of cloud point temperature: 10.0

## CC(O)CC(C)O (stereo not drawn) [Pentan-2,4-diol]
[2]
  Increase in stratum corneum extensibility: 17.0
[1]; [3]
  Cloud point temperature: 48.0 °C
[1]; [4]
  Elevation of cloud point temperature: 14.5
[1]; [5]
  Elevation of cloud point temperature: 14.5

## OCC(O)CO [Propan-1,2,3-triol]
[2]
  Increase in stratum corneum extensibility: 5
[1]; [6]
  Cloud point temperature: 32.2 °C
[1]; [7]
  Elevation of cloud point temperature: -1.3 °C
[1]
  Effect on the cloud point temperature of nonionic surfactants: reduce the cloud point temperature
[1]; [5]
  Elevation of cloud point temperature: -1.3

## CC(O)CO (stereo not drawn) [Propan-1,2-diol]
[2]
  Increase in stratum corneum extensibility: 12.6
[1]; [6]
  Cloud point temperature: 39.0 °C
[1]; [7]
  Elevation of cloud point temperature: 5.5 °C
[1]; [5]
  Elevation of cloud point temperature: 5.5

## CCCO [Propan-1-ol]
[1]; [3]
  Cloud point temperature: 53.0 °C
[1]; [4]
  Elevation of cloud point temperature: 19.5

## CC(C)O [Propan-2-ol]
[1]; [3]
  Cloud point temperature: 56.0 °C
[1]; [4]
  Elevation of cloud point temperature: 22.5

## C1CCOC1 [Tetrahydrofuran]
[1]; [3]
  Cloud point temperature: 45.0 °C
[1]; [4]
  Elevation of cloud point temperature: 11.5

## Nc1ncnc2c1ncn2[C@@H]1O[C@H](COP(=O)(O)OP(=O)(O)O)[C@@H](O)[C@H]1O [adenosine diphosphate]
physchem
  logP: 0.89

## Nc1ncnc2c1ncn2[C@@H]1O[C@H](COP(=O)(O)OP(=O)(O)OP(=O)(O)O)[C@@H](O)[C@H]1O [adenosine triphosphate]
physchem
  logP: 1.64

## CC(N)Cc1ccccc1 (stereo not drawn) [amphetamine, reference compound]
octanol/water at 20° C.
  Log partition coefficient: 1.63

## O=C(O)CCCCCCCC(=O)O [azelaic acid, reference compound]
octanol/water
  Log partition coefficient: 1.57

## c1ccc2[nH]cnc2c1 [benzimidazole]
octanol/water at 20° C.
  Log partition coefficient: 1.34

## CC1(C)S[C@@H]2[C@H](NC(=O)Cc3ccccc3)C(=O)N2[C@H]1C(=O)O [benzyl pencillin, reference compound]
octanol/water
  Log partition coefficient: 1.83

## COc1ccc2c3c1O[C@H]1[C@@H](O)C=C[C@H]4[C@@H](C2)N(C)CC[C@@]341 [codeine, reference compound]
physchem
  logP: 1.01

## CC[C@H]1OC(=O)[C@H](C)[C@@H](O[C@H]2C[C@@](C)(OC)[C@@H](O)[C@H](C)O2)[C@H](C)[C@@H](O[C@@H]2O[C@H](C)C[C@H](N(C)C)[C@H]2O)[C@](C)(O)C[C@@H](C)C(=O)[C@H](C)[C@@H](O)[C@]1(C)O [erythromycin, reference compound]
octanol/water
  Log partition coefficient: 1.26

## CCOC(=O)c1cccnc1 [ethyl nicotinate]
octanol/water at 20° C.
  Log partition coefficient: 1.32

## O=C(O)c1cccc(O)c1 [m-hydroxybenzoic]
octanol/water
  Log partition coefficient: 1.50

## Cc1cccc(S(N)(=O)=O)c1 [m-methylbenzene sulphonamide]
octanol/water at 20° C.
  Log partition coefficient: 0.85

## NS(=O)(=O)c1cccc([N+](=O)[O-])c1 [m-nitrobezene sulphonamide]
octanol/water at 20° C.
  Log partition coefficient: 0.55

## NC(=O)c1cccnc1 [niacinamide, reference compound]
octanol/water at 20° C.
  Log partition coefficient: 1.37

## Oc1ccccc1O [o-dihydroxybenzene]
octanol/water at 20° C.
  Log partition coefficient: 0.80

## Cc1ccccc1S(N)(=O)=O [o-methylbenzene sulphonamide]
octanol/water
  Log partition coefficient: 0.84

## Nc1ccc(C(=O)O)cc1 [p-aminobenzoic acid, reference compound]
octanol/water
  Log partition coefficient: 0.68

## Oc1ccc(O)cc1 [p-dihyroxybenzene]
octanol/water
  Log partition coefficient: 0.59

## Cc1ccc(S(N)(=O)=O)cc1 [p-methylbenzene sulphonamide]
octanol/water at 20° C.
  Log partition coefficient: 0.82

## NS(=O)(=O)c1ccc([N+](=O)[O-])cc1 [p-nitrobenzene sulphonamide]
octanol/water at 20° C.
  Log partition coefficient: 0.64

## CCN(CC)CCOC(=O)c1ccc(N)cc1 [procaine, reference compound]
octanol/water
  Log partition coefficient: 1.87

## O=C1NS(=O)(=O)c2ccccc21 [saccharin]
octanol/water
  Log partition coefficient: 0.91

## O=C(O)c1ccccc1O [salicylic acid, reference compound]
octanol/water at 20° C.
  Log partition coefficient: 2.26

## OC[C@@H](O)[C@@H](O)[C@H](O)[C@@H](O)CO [sorbitol]
[1]
  Effect on the cloud point temperature of nonionic surfactants: reduce the cloud point temperature

## O=C1C[C@@H]2OCC=C3CN4CC[C@]56c7ccccc7N1[C@H]5[C@H]2[C@H]3C[C@H]46 [strychnine]
octanol/water
  Log partition coefficient: 1.93

## COc1cc(NS(=O)(=O)c2ccc(N)cc2)ncn1 [sulphamonomethoxine, reference compound]
physchem
  logP: 0.85

## Nc1ccc(S(=O)(=O)Nc2ccnn2-c2ccccc2)cc1 [sulphaphenzole, reference compound]
physchem
  logP: 1.57

## COC1=CC=C2[C@H]3Cc4ccc(OC)c5c4[C@@]2(CCN3C)[C@H]1O5 [thebaine]
physchem
  logP: 1.91

## CCOC(=O)CC(O)(CC(=O)OCC)C(=O)OCC [triethyl citrate]
octanol/water at 20° C.
  Log partition coefficient: 0.67

## CC1(C)SC2C(NC(=O)C(O)c3ccccc3)C(=O)N2C1C(=O)O (stereo not drawn) [α-hydroxy benzyl penicillin]
octanol/water at 20° C.
  Log partition coefficient: 1.40
